According to US6034246A, “2-arylbenzazole compounds” (Cancer Research Campaign Technology Limited, priority 1995, dated 2000):
One block for each molecule: values may come before it.

How the values were obtained:
A2780 = experiment: in vitro activity against human ovarian cell line A2780 (Table 2); assay type: cell-based; conditions: Homo sapiens; A2780 (parental line)
Source text: (§1) As usual the results are expressed in terms of IS50 values (concentration or dosage required to reduce cell growth or proliferation by 50%) calculated from dose-effect curves plotted for cultures of the cells in question.
(§2) In carrying out the in vitro studies, the cytotoxicity assays may be carried out by a method corresponding substantially to the following example:
(§3) Cells were maintained in a continuous logarithmic culture in Dublecco's medium supplemented with 10% fetal calf serum and penicillin (100 IU/ml) and streptomycin ([…]). The cells were mildly trypsinized for passage and for use in assays. On day zero, 100 μl of trypsinized tumor cells (1×10^4 /ml) were plated in the wells of 96-well flat-bottom microtiter plates. The plates were incubated for 2 days at 37° C. and 5% CO2 in air to allow the cells to adhere and resume exponential growth prior to the addition of drugs.
(§4) On day two 50 μl of the highest drug concentration was added to the wells of column 12 and from there serially diluted 3-fold to column 1 by serial transfer of 50 μl using an 8-channel micropipette. The final volume of column 1 was adjusted to 100 μl. No additions were made to the wells of rows A and B, which served as controls. The plates were further incubated for 5 days at 37° C. and 5% CO2 in air. Each compound was tested in duplicate.
(§5) The plates were kept at 4° C. overnight before reading on an inverted microscope equipped with an automated scanning stage. Fluorescence intensity was measured in arbitrary units by a photomultiplier. An HP-87 computer controlled the movement of the stage and also collected and processed the data from the multiplier.

MCF-7wt = experiment: in vitro inhibitory activity against human breast tumour cell line MCF-7wt (Table 4); assay type: cell-based; conditions: initial seeding density 2.5 × 10^2 cells/well
Source text: (§6) Tables 1 to 4 at the end of the present description show in vitro test results obtained in various sets of experiments for the cytotoxic activity of several of the benzazole compounds concerned, including also for reference results for the compound CJM 126 and comparative results for compound DF129, when tested against a range of tumor cell lines which includes ovarian, lung and certain colon and renal cancer cells from the National Cancer Institute (USA) collection. As usual the results are expressed in terms of IS50 values (concentration or dosage required to reduce cell growth or proliferation by 50%) calculated from dose-effect curves plotted for cultures of the cells in question.
as §2, §3, §4
as §5, with “On day 7 the test was terminated by the addition of 100 μl saline containing 0.002% w/v propidium iodide (Sigma), 0.3% drawing ink (Staedtler "Marsmatic 745"--Trade Mark) and 0.5% Triton X-100. The” for “The”
(§7) For each compound tested a dose-response curve was obtained and the IC50 value (the drug concentration at 50% inhibition of cell growth) was calculated.
(§8) *Initial seeding density 2.5 × 10^2 cells/well

MOR/CPR = experiment: in vitro inhibition of growth of human lung cancer cell line MOR/CPR (Table 1); assay type: cell-based; conditions: Homo sapiens; MOR/CPR (cisplatin resistant line)
Source text: as §6, §2, §3, §4
as §5, with “On day 7 the test was terminated by the addition of 100 μl saline containing 0.002% w/v propidium iodide (Sigma), 0.3% drawing ink (Staedtler "Marsmatic 745"--Trade Mark) and 0.5% Triton X-100. The” for “The”
as §7

L88 = experiment: in vitro inhibition of growth of human lung cancer cell line L88 (Table 1); assay type: cell-based
Source text: as §6, §2, §3
as §4, with “The plates were further incubated for 5 days at 37° C. and 5% CO2 in air. Each compound was tested in duplicate.” left out
(§9) On day 7 the test was terminated by the addition of 100 μl saline containing 0.002% w/v propidium iodide (Sigma), 0.3% drawing ink (Staedtler "Marsmatic 745"--Trade Mark) and 0.5% Triton X-100. The plates were kept at 4° C. overnight before reading on an inverted microscope equipped with an automated scanning stage. Fluorescence intensity was measured in arbitrary units by a photomultiplier. […]

L23/R = experiment: in vitro inhibition of growth of human lung cancer cell line L23/R (Table 1); assay type: cell-based
Source text: as §6, §2, §3, §4
(§10) On day 7 the test was terminated by the addition of 100 μl saline containing 0.002% w/v propidium iodide (Sigma), 0.3% drawing ink (Staedtler "Marsmatic 745"--Trade Mark) and 0.5% Triton X-100. The plates were kept at 4° C. overnight before reading on an inverted microscope equipped with an automated scanning stage. Fluorescence intensity was measured in arbitrary units by a photomultiplier. An HP-87 computer controlled the movement of the stage and also collected and processed the data from the multiplier.
as §7

[1] = test system: ovarian cancer cell lines; experiment: in vitro inhibition of ovarian cancer cell lines; assay type: cell-based, human; conditions: words, Table 2
Source text: as §6
In carrying out the in vitro studies, the cytotoxicity assays may be carried out by a method corresponding substantially to the following example: […]
as §9

MOR/R = experiment: in vitro inhibition of growth of human lung cancer cell line MOR/R (Table 1); assay type: cell-based; conditions: MOR/R (multidrug resistant line)
Source text: as §6, §2, §3, §4, §10, §7

LX4 = experiment: in vitro inhibition of growth of human lung cancer cell line LX4 (Table 1); assay type: cell-based
Source text: as §6, §2, §3, §4, §10, §7

H69/P = experiment: in vitro inhibition of growth of human lung cancer cell line H69/P (Table 1); assay type: cell-based
Source text: as §6, §2, §3, §4, §10, §7

A2780-cisR = experiment: in vitro activity against human ovarian cell line A2780-cisR (Table 2); assay type: cell-based; conditions: Homo sapiens, A2780cisR; A2780-cisR (platinum-resistant)
Source text: as §1, §2, §3, §4, §5

MDA 468 = experiment: in vitro inhibitory activity against human breast tumour cell line MDA 468 (Table 4); assay type: cell-based; conditions: initial seeding density 2.5 × 10^2 cells/well
Source text: as §6, §2, §3, §4, §10, §7, §8

L23/P = experiment: in vitro inhibition of growth of human lung cancer cell line L23/P (Table 1); assay type: cell-based
Source text: as §6, §2, §3, §4, §10, §7

CH1-cisR = experiment: in vitro activity against human ovarian cell line CH1-cisR (Table 2); assay type: cell-based; conditions: Homo sapiens, CH1cisR
Source text: as §1, §2, §3, §4, §5

MCF-7B = experiment: in vitro inhibitory activity against human breast tumour cell line MCF-7B (Table 4); assay type: cell-based; conditions: initial seeding density 2.5 × 10^2 cells/well
Source text: as §6, §2, §3
as §4, with “The plates were further incubated for 5 days at 37° C. and 5% CO2 in air. Each compound was tested in duplicate.” left out
as §9

MOR/P = experiment: in vitro inhibition of growth of human lung cancer cell line MOR/P (Table 1); assay type: cell-based; conditions: MOR/P (parental line)
Source text: as §6, §2, §3, §4, §10, §7

CH1 = experiment: in vitro activity against human ovarian cell line CH1 (Table 2); assay type: cell-based; conditions: Homo sapiens
Source text: as §1, §2, §3, §4, §5

[2] = test system: human breast cancer cell lines; experiment: in vitro inhibition of human breast cancer cell lines; assay type: cell-based; conditions: words, Table 4
Source text: as §6, §2, §3, §4, §10, §7

ER-tumors MT-1 and MT-3 = conditions: words, background statement; cited from earlier work

IC50 (MOR/CPR): 10 µM
IC50 (L88): 6 µM
IC50 (L23/R): 1.5 µM
IC50 (MOR/R): 6 µM
IC50 (LX4): 3 µM
IC50 (H69/P): 3 µM
IC50 (A2780-cisR): 1.6 µM
IC50 (L23/P): 1.5 µM
IC50 (CH1-cisR): 2.6 µM
IC50 (CH1): 1.6 µM
Compound: O=C(CCl)Nc1ccc(-c2nc3ccccc3s2)cc1 [DF180, 2-(4'-Chloroacetamidophenyl)benzothiazole]
IC50 (A2780): 1.25 µM
IC50 (MCF-7wt): 0.004 µM
activity against two cisplatin resistant cell lines compared with the parental line [1]: substantially equiactive
activity in respect of the ovarian cancer cell lines [1]: most active by far
IC50 (MDA 468): 0.04 µM
IC50 (MCF-7B): 0.5 µM
IC50 (MOR/P): 6 µM
inhibitory activity in respect of breast cancer cell lines [2]: useful degree of inhibitory activity

Compound: Nc1ccc(-c2nc3ccccc3s2)cc1Br [DF209, 2-(4'-amino-3'-bromophenyl)benzothiazole]
IC50 (MCF-7wt): < 0.001 µM
IC50 (MDA 468): < 0.001 µM
IC50 (MCF-7B): 0.001 µM
potency against breast cancer cells relative to CJM 126 [2]: more potent than even the compound CJM 126

Compound: CCCCCCCCCCCCCCCCOP(=O)([O-])OCC[N+](C)(C)C [hexadecylphosphocoline]
responsiveness of MT-1 and MT-3 tumors to drug (ER-tumors MT-1 and MT-3): exquisitively sensitive

Compound: CN(Cc1cnc2nc(N)nc(N)c2n1)c1ccc(C(=O)N[C@@H](CCC(=O)O)C(=O)O)cc1 [methotrexate]
responsiveness of MT-1 and MT-3 tumors to drug (ER-tumors MT-1 and MT-3): completely unresponsive

Compound: CC[C@]1(O)C[C@H]2CN(CCc3c([nH]c4ccccc34)[C@@](C(=O)OC)(c3cc4c(cc3OC)N(C=O)[C@H]3[C@@](O)(C(=O)OC)[C@H](OC(C)=O)[C@]5(CC)C=CCN6CC[C@]43[C@@H]65)C2)C1 [vincristine]
responsiveness of MT-1 and MT-3 tumors to drug (ER-tumors MT-1 and MT-3): completely unresponsive
